{
  "source": "patent US20210293825A1",
  "about": "“METHODS FOR PRECISION THERAPEUTIC TARGETING OF HUMAN CANCER CELL MOTILITY AND KITS THEREOF” (UNITED STATES GOVERNMENT AS REPRESENTED BY THE DEPARTMENT …, priority 2018, published 2021)",
  "key": {"panel of 284 kinases": {"tested_on": "panel of 284 kinases", "assay": "KinaseProfiler radiometric assay platform (Millipore)", "assay_type": "biochemical", "conditions": "competition with ATP", "description": "Kinase assay system #3. KinaseProfiler™ and PhosphataseProfiler™ assay platforms (Millipore). This platform is radiometric-based (considered gold standard). It measures competition with respect to ATP for kinases and substrate protein for phosphatases. Most proteins were expressed via an insect-based system, and it evaluates a panel of 284 kinases and 20 phosphatases. […] Important negative findings include: MKK4, MKK6, p38 MAPK, MAPKAPK2, RAF1, ERK, MEK1, JNK1, 2 and 3, and numerous other MAPK cascade-associated kinases."}, "HSP90β": {"target": "T1, HSP90β (Homo sapiens, UniProt P08238)", "T1 construct": "made in house; host or cells: Rosetta BL-21 E. coli", "T1 sequence (P08238 whole entry)": "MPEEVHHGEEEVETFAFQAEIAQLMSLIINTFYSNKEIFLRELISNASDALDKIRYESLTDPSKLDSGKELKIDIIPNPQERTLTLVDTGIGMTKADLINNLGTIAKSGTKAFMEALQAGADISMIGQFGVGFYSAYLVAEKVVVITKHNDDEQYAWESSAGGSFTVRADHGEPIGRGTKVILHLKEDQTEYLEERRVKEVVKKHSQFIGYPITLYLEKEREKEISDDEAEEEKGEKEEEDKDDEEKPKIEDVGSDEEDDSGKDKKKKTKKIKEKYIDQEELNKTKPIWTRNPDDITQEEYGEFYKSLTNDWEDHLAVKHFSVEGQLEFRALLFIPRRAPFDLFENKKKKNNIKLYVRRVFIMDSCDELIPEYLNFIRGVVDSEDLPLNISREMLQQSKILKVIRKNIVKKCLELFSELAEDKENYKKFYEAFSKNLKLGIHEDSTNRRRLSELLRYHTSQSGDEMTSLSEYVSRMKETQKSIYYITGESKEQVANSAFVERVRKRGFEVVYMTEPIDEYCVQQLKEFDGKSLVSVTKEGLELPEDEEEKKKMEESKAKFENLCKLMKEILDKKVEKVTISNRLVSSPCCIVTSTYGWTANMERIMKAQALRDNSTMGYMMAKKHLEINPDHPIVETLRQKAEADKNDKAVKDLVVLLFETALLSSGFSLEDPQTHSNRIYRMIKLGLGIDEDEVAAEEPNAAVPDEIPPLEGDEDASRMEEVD", "assay": "Biophysical binding assays and DARTS, isolated HSP90β", "conditions": "ITC, thermal shift, biolayer interferometry, dynamic light scattering, DARTS", "description": "Studies used purified recombinant HSP90β or CDC37. […] For DARTS assay, HSP90β or CDC37 were individually pre-incubated with KBU2046, thermolysin added, and reaction products were separated by SDS PAGE and visualized by silver stain (depicted above). NTco—no thermolysin control. However, when the DARTS assay was conducted with both HSP90β and CDC37 present, KBU2046 protected both proteins from degradation in a concentration-dependent manner (see, FIG. 5a).\nDARTS provides a sensitive measure of ligand-induced changes in protein structure and dynamics by measuring the ability of a ligand to protect its target from protease digestion (Lomenick, B. et al., Proc Natl Acad Sci USA 106, 21984-9 (2009)). […] The intensity of the CDC37 band increased, that of the HSP90β degradation product decreased, and both effects were statistically significant, concentration-dependent and were evident at 10 nM. […] Further, these findings also indicate that KBU2046 is not acting as a classical HSP90 inhibitor.\nBiophysical and Biochemical Binding Assays. […]"}, "estrogen receptor (ER)": {"target": "T2, estrogen receptor (ER) (Homo sapiens, UniProt P03372)", "T2 construct": "estrogen receptor positive MCF-7 cells; endogenous in cells; host or cells: MCF-7", "T2 sequence (P03372 whole entry)": "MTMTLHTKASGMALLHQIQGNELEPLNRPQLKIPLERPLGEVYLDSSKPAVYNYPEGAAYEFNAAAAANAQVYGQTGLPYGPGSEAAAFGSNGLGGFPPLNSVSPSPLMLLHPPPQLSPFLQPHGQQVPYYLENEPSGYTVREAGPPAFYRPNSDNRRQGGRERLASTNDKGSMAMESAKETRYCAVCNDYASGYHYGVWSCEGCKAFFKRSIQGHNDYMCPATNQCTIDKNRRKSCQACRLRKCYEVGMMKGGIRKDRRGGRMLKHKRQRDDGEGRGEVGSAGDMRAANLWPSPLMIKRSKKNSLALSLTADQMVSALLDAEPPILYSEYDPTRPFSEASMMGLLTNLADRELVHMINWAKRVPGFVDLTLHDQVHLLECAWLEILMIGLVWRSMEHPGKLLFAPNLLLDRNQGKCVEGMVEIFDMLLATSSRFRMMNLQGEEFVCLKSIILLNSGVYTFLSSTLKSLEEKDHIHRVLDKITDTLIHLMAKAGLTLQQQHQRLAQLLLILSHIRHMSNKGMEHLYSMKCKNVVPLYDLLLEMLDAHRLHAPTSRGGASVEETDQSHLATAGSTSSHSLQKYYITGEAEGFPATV", "assay": "pERE-Luc estrogen receptor reporter assay in MCF-7 cells", "assay_type": "cell-based", "conditions": "24 hours, micromolar concentrations", "description": "Values are the mean±SD of a single experiment, with similar results seen in a separate repeat experiment, both in replicates of N=2.\nConstructs, Transfection, and Luciferase Assays. Constructs were purchased or gifts: constitutive active MEK4EE (MAP2K4-EE; residues 37-399; Addgene, plasmid 14813), pRL-TK-Renilla luciferase (Promega), pCMV-β-galactosidase (Agilent Technologies), and pcDNA-GFP (Invitrogen), HSP90β was from Pawel Bieganowski (Mossakowski Medical Research Center PAS, Poland) (Zurawska, A. et al., Biochim Biophys Acta 1803, 575-83 (2010)), estrogen responsive promoter-luciferase reporter construct, pERE-Luc, was from Craig Jordan (Georgetown University) (Catherino, W. H. et al., Cancer Lett 92, 39-47 (1995)), human CDC37 in pET15b plasmid was from Avrom Caplan (City College of New York) (Rao, J. et al., J Biol Chem 276, 5814-20 (2001)). siRNA used Dharmacon ON-Targetplus SMARTpool™ siRNA directed against HSP90β (cat #L-005187-00-0010) non-targeting siRNA (cat #D-001810-10-05), used TransIT-LT1 Transfection Reagent (Mirus Bio LLC), or with Dharmafect Duo (Thermo Scientific, Lafayette, Colo.) for co-delivery of plasmid. Luciferase assays were performed as described (Breen, M. J. et al., PLoS One 8, e72407 (2013)).\nLuciferase activity was measured, normalized to that of β-gal, and values expressed as the percent of untreated vector control cells."}},
  "data": [
    {"smiles": "O=C1c2ccccc2OCC1c1ccc(F)cc1", "note": "(racemic) [KBU2046, (±)-3(4-fluorophenyl)chroman-4-one]", "values": [
      {"measurement": "inhibition of kinase activity", "setting": "panel of 284 kinases", "value": "no evidence that KBU2046 inhibits kinase activity"},
      {"measurement": "binding to HSP90β", "setting": "HSP90β", "value": "no evidence of KBU2046 binding"},
      {"measurement": "activation of the estrogen receptor", "setting": "estrogen receptor (ER)", "value": "does not activate the estrogen receptor (ER)"}
    ]}
  ]
}
